Measured values published in patent US20150197492A1, “NOVEL INDENO[1,2-c]QUINOLIN-11-ONE DERIVATIVES, PREPARATION METHOD AND APPLICATION THEREOF” (National Defense Medical Center, priority 2014, published 2015).

Experiments:
Assay type in all cases: cell-based
human PC-3 cells = experiment: Sulforhodamine B (SRB) assay, cytotoxicity against PC-3 cells; conditions: SRB assay, PC-3 cells; for IC50: Homo sapiens, 48 hours, read-out: IC50
Summary of the method: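 PC-3 cells in 5% FBS were fixed with 10% TCA after 24 h as T0, then treated with compound for 48 h, fixed, stained with 0.4% SRB in 1% acetic acid and solubilized in 10 mmol/L Trizma base. Absorbance was read at 515 nm. GI% = 100−[(Tx−T0)/(C−T0)]×100, and IC50 is the concentration halving total protein.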

[1] = system: 55 to 60 cancer cell lines; conditions: 10 μM, 48 hours; for Mean (mean growth percentage of the tested cancer cell lines): all tested cell lines
CCRF-CEM = experiment: cells; conditions: CCRF-CEM (Leukemia), 10 μM, 48 hours
MOLT-4 = experiment: cells; conditions: MOLT-4 (Leukemia), 10 μM, 48 hours
SR = experiment: cells; conditions: SR (Leukemia), 10 μM, 48 hours
NCI-H322M = experiment: cells; conditions: NCI-H322M (Non-Small Cell Lung Cancer), 10 μM, 48 hours
NCI-H522 = experiment: cells; conditions: NCI-H522 (Non-Small Cell Lung Cancer), 10 μM, 48 hours
HT29 = experiment: cells; conditions: HT29 (Colon Cancer), 10 μM, 48 hours
KM12 = experiment: cells; conditions: KM12 (Colon Cancer), 10 μM, 48 hours
SF-295 = experiment: cells; conditions: SF-295 (CNS Cancer), 10 μM, 48 hours
SNB-19 = experiment: cells; conditions: SNB-19 (CNS Cancer), 10 μM, 48 hours
MALME-3M = experiment: cells; conditions: MALME-3M (Melanoma), 10 μM, 48 hours
MDA-MB-435 = experiment: cells; conditions: MDA-MB-435 (Melanoma), 10 μM, 48 hours
SK-MEL-28 = experiment: cells; conditions: SK-MEL-28 (Melanoma), 10 μM, 48 hours
UACC-257 = experiment: cells; conditions: UACC-257 (Melanoma), 10 μM, 48 hours
UACC-62 = experiment: cells; conditions: UACC-62 (Melanoma), 10 μM, 48 hours
OVCAR-3 = experiment: cells; conditions: OVCAR-3 (Ovarian Cancer), 10 μM, 48 hours
OVCAR-4 = experiment: cells; conditions: OVCAR-4 (Ovarian Cancer), 10 μM, 48 hours
OVCAR-5 = experiment: cells; conditions: OVCAR-5 (Ovarian Cancer), 10 μM, 48 hours
OVCAR-8 = experiment: cells; conditions: OVCAR-8 (Ovarian Cancer), 10 μM, 48 hours
786-0 = experiment: cells; conditions: 786-0 (Renal Cancer), 10 μM, 48 hours
ACHN = experiment: cells; conditions: ACHN (Renal Cancer), 10 μM, 48 hours
CAKI-1 = experiment: cells; conditions: CAKI-1 (Renal Cancer), 10 μM, 48 hours
SN12C = experiment: cells; conditions: SN12C (Renal Cancer), 10 μM, 48 hours
PC-3 = experiment: cells; conditions: PC-3 (Prostate Cancer), 10 μM, 48 hours
DU-145 = experiment: cells; conditions: DU-145 (Prostate Cancer), 10 μM, 48 hours
HS 578T = experiment: cells; conditions: HS 578T (Breast Cancer), 10 μM, 48 hours
BT-549 = experiment: cells; conditions: BT-549 (Breast Cancer), 10 μM, 48 hours
T-47D = experiment: cells; conditions: T-47D (Breast Cancer), 10 μM, 48 hours
MDA-MB-468 = experiment: cells; conditions: MDA-MB-468 (Breast Cancer), 10 μM, 48 hours

Row | Structure (SMILES) | Mean (mean growth percentage of the tested cancer cell lines) [1] [%] | growth percentage (CCRF-CEM) [%] | growth percentage (MOLT-4) [%] | growth percentage (SR) [%] | growth percentage (NCI-H322M) [%] | growth percentage (NCI-H522) [%] | growth percentage (HT29) [%] | growth percentage (KM12) [%] | growth percentage (SF-295) [%] | growth percentage (SNB-19) [%] | growth percentage (MALME-3M) [%] | growth percentage (MDA-MB-435) [%] | growth percentage (SK-MEL-28) [%] | growth percentage (UACC-257) [%] | growth percentage (UACC-62) [%] | growth percentage (OVCAR-3) [%] | growth percentage (OVCAR-4) [%] | growth percentage (OVCAR-5) [%] | growth percentage (OVCAR-8) [%] | growth percentage (786-0) [%] | also measured
1 | O=C1c2cc(Cl)ccc2-c2c(N3CCSCC3)nc3ccccc3c21 [SJ-9, 9-Chloro-6-thiomorpholino-11H-indeno[1,2-c]quinolin-11-one] | 94.75 | 105.04 | 93.29 | 99.53 | 92.29 | 92.76 | 95.52 | 97.97 | 93.33 | 113.43 | 101.05 | 107.70 | 110.84 | 107.44 | 94.90 | 96.58 | 98.19 | 94.37 | 96.11 | 99.53 | Toxicity (%) (human PC-3 cells): 33.3%; GI % (10 μM) (human PC-3 cells): 100%; growth percentage (ACHN): 86.42%; growth percentage (CAKI-1): 82.68%; growth percentage (SN12C): 93.10%; growth percentage (PC-3): 87.77%; growth percentage (DU-145): 106.04%; growth percentage (HS 578T): 87.68%; growth percentage (BT-549): 92.91%; growth percentage (T-47D): 83.86%; growth percentage (MDA-MB-468): 97.71%
2 | O=C1c2cc(Cl)ccc2-c2c(SCCO)nc3ccccc3c21 [SJ-25, 6-(2-Hydroxyethylthio)-9-chloro-11H-indeno[1,2-c]quinolin-11-one] | 79.52 | 71.56 | 59.49 | 61.70 | 73.47 | 68.89 | 84.03 | 84.62 | 73.28 | 89.19 | 107.23 | 95.15 | 86.90 | 106.91 | 84.47 | 89.42 | 73.19 | 112.54 | 90.21 | 100.58 | IC50 (human PC-3 cells): > 10 µM; growth percentage (ACHN): 88.12%; growth percentage (CAKI-1): 41.86%; growth percentage (SN12C): 84.58%; growth percentage (PC-3): 58.35%; growth percentage (DU-145): 92.27%; growth percentage (HS 578T): 58.28%; growth percentage (BT-549): 92.88%; growth percentage (T-47D): 63.89%; growth percentage (MDA-MB-468): 77.36%
3 | O=C1c2cc(Cl)ccc2-c2c(N3CCOCC3)nc3ccccc3c21 [SJ-8, 9-Chloro-6-morpholino-11H-indeno[1,2-c]quinolin-11-one] | 93.66 | 88.85 | 88.74 | 85.94 | 91.28 | 91.11 | 91.34 | 109.99 | 102.43 | 100.01 | 136.93 | 106.62 | 113.81 | 103.31 | 88.33 | 102.34 | 96.67 | 90.30 | 95.25 | 103.71 | IC50 (human PC-3 cells): > 10 µM; growth percentage (ACHN): 81.66%; growth percentage (CAKI-1): 94.99%; growth percentage (SN12C): 96.95%; growth percentage (PC-3): 79.64%; growth percentage (DU-145): 119.02%; growth percentage (HS 578T): 88.93%; growth percentage (BT-549): 93.95%; growth percentage (T-47D): 88.81%; growth percentage (MDA-MB-468): 59.47%
4 | CNc1nc2ccccc2c2c1-c1ccc(Cl)cc1C2=O [SJ-1, 9-Chloro-6-(methylamino)-11H-indeno[1,2-c]quinolin-11-one] | 84.15 | 101.50 | 93.26 | 91.67 | 80.85 | 90.50 | 99.44 | 66.82 | 95.71 | 95.95 | 114.83 | 107.24 | 114.89 | 107.69 | 77.41 | 84.91 | 72.83 | 81.54 | 94.33 | 103.34 | Toxicity (%) (human PC-3 cells): 52.8%; GI % (10 μM) (human PC-3 cells): 100%; inhibition effect in different cancer cell lines (summary of the NCI data, in words) [1]: more effective in breast cancer cell line; growth percentage (ACHN): 88.46%; growth percentage (CAKI-1): 73.84%; growth percentage (SN12C): 94.82%; growth percentage (PC-3): 89.44%; growth percentage (DU-145): 106.88%; growth percentage (HS 578T): 85.28%; growth percentage (BT-549): 101.88%; growth percentage (T-47D): 23.53%; growth percentage (MDA-MB-468): -31.61%
